Measured values from patent US10071984B2, “Histone demethylase inhibitors” (Celgene Quanticel Research, Inc., priority 2014, dated 2018).

Experiments:
Assay type in all cases: biochemical
FBXL10 = FBXL10 (Homo sapiens (Human), UniProt Q8NHM5); test: FBXL10 in vitro enzyme inhibition assay (AlphaScreen); conditions: 0.3 nM FBXL10, H3K36me2-biotin peptide
Source text: (§1) This assay determines the ability of a test compound to inhibit FBXL11, FBXL10, and PHF8 demethylase activity. Baculovirus expressed FBXL11 (GenBank Accession #NM_012308, AA1-1162) was purchased from BPS Bioscience (Cat#50102). Baculovirus expressed FBXL10 (GenBank Accession #NM_032590, AA 1-650) was purchased from BPS Bioscience (Cat #50120). Baculovirus expressed PHF8 (GenBank Accession NP_055922.1) was purchased from Active Motif (Cat#31435).
(§2) The ability of test compounds to inhibit the activity of FBXL10 was determined in 384-well plate format under the following reaction conditions: 0.3 nM FBXL10, 30 nM H3K36me2-biotin labeled peptide (Anaspec cat #64442), 0.2 μM alpha-ketoglutaric acid in assay buffer of 50 mM HEPES, pH7.3, 0.005% Brij35, 0.5 mM TCEP, 0.2 mg/ml BSA, 50 μM sodium L-ascorbate, 5 μM ammonium iron(II) sulfate. Reaction product is determined quantitatively by AlphaScreen detection after the addition of detection reagents anti-H3K36me1 antibody, AlphaScreen® Streptavidin-coated Donor beads, and AlphaScreen® Protein A Acceptor beads in 50 mM HEPES, pH7.3, 10 mM NaCl, 0.005% Brij35, 5 mM EDTA, 2 mg/ml BSA to final 10 μg/ml beads.
(§3) The assay reaction was initiated by the following: 3 μl of the mixture of 90 nM H3K36me2-biotin labeled peptide and 0.6 μM alpha-ketoglutaric acid with 3 μl of 11-point serial diluted inhibitor in 3% DMSO are added to each well of 384 well Proxiplate (Perkin Elmer), followed by the addition of 3 μl of 0.9 nM FBXL10 to initiate the reaction. The reaction mixture is incubated at room temperature for 1 hour, and terminated by the addition of 3 μl of appropriate dilution of anti H3K36me1 antibody in 50 mM HEPES, pH7.3, 10 mM NaCl, 0.005% Brij35, 5 mM EDTA, 2 mg/ml BSA. Plates will then incubated at room temperature for 40 minutes, followed by addition of 3 ul of 50 μg/ml AlphaScreen® Streptavidin-coated Donor beads and AlphaScreen® Protein A Acceptor beads in 50 mM HEPES, pH7.3, 10 mM NaCl, 0.005% Brij35, 5 mM EDTA, 2 mg/ml BSA. Plates will then be read by EnVision Multilabel Reader in AlphaScreen mode after minimum 2 hour incubation at room temperature. The AlphaScreen signal for each well is used to determine inhibition constant (IC50).
(§4) The ability of the compounds disclosed herein to inhibit demethylase activity was quantified and the respective IC50 value was determined.

FBXL11 = FBXL11 (Homo sapiens (Human), UniProt Q9Y2K7); test: FBXL11 in vitro enzyme inhibition assay (AlphaScreen); conditions: 0.15 nM FBXL11, H3K36me2-biotin peptide
Source text: as §1
as §2, with “FBXL11” for “FBXL10”, “0.15” for “0.3”, “FBXL11,” for “FBXL10,”
as §3, with “0.45” for “0.9”, “FBXL11” for “FBXL10”
The ability of the compounds disclosed herein to inhibit demethylase activity was quantified and the respective IC50 value was determined. Table 3 provides the IC50 values of various compounds disclosed herein.

PHF8 = PHF8 (Homo sapiens (Human), UniProt Q9UPP1); test: PHF8 in vitro enzyme inhibition assay (TR-FRET); conditions: 3 nM PHF8, H3K9me1-biotin peptide
Source text: as §1
The ability of test compounds to inhibit the activity of PHF8 was determined in 384-well plate format under the following reaction conditions: 3 nM PHF8, 200 nM H3K9me1-biotin labeled peptide (Anaspec cat #64358), 0.5 μM alpha-ketoglutaric acid in assay buffer of 50 mM HEPES, pH7.3, 0.005% Brij35, 0.5 mM TCEP, 0.2 mg/ml BSA, 50 μM sodium L-ascorbate, and 5 μM ammonium iron(II) sulfate. Reaction product was determined quantitatively by TR-FRET after the addition of detection reagent Phycolink Streptavidin-allophycocyanin (Prozyme) and Europium-anti-unmodified-histone H3 lysine 9/lysine27 (H3K9/K27) antibody (PerkinElmer) in the presence of 5 mM EDTA in LANCE detection buffer (PerkinElmer) at a final concentration of 25 nM and 0.5 nM, respectively.
The assay reaction was initiated by the following: 2 μl of the mixture of 600 nM H3K9me1-biotin labeled peptide and 1.5 μM alpha-ketoglutaric acid with 2 μl of 11-point serial diluted inhibitor in 3% DMSO were added to each well of the plate, followed by the addition of 2 μl of 9 nM PHF8 to initiate the reaction. The reaction mixture was incubated at room temperature for 15 minutes, and terminated by the addition of 6 μl of 5 mM EDTA in LANCE detection buffer containing 50 nM Phycolink Streptavidin-allophycocyanin and 1 nM Europium-anti-unmodified H3K9/K27 antibody. Plates were read by EnVision Multilabel Reader in TR-FRET mode (excitation at 320 nm, emission at 615 nm and 665 nm) after 1 hour incubation at room temperature. A ratio was calculated (665/615) for each well and fitted to determine inhibition constant (IC50).
as §4

Chain of PHF8 (Q9UPP1 37-1060): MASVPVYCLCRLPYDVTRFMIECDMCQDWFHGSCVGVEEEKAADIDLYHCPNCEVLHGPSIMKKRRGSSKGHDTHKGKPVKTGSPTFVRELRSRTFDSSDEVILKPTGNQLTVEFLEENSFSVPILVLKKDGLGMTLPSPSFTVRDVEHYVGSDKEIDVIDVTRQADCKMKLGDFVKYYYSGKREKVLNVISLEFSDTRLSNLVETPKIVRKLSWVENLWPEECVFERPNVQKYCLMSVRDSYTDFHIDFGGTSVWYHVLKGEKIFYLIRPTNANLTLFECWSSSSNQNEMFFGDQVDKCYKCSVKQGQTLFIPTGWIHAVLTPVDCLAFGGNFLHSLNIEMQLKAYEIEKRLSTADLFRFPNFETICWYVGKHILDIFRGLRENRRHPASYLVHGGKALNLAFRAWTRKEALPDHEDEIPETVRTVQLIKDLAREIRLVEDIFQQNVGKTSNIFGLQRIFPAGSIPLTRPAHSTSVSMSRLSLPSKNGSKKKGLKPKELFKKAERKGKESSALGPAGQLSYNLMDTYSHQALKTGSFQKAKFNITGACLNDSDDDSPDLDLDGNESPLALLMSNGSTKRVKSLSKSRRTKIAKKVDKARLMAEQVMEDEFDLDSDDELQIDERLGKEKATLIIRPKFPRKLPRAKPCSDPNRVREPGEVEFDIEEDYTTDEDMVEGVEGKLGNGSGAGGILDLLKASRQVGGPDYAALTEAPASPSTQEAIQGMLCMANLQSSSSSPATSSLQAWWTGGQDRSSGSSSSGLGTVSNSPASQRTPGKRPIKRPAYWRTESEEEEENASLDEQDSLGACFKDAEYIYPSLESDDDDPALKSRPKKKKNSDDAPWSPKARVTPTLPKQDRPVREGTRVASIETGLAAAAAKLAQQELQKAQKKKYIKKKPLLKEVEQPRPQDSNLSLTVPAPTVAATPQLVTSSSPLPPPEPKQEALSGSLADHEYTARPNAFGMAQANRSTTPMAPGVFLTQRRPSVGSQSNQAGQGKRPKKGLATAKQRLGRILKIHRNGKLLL
Chain of FBXL11 (Q9Y2K7 whole entry): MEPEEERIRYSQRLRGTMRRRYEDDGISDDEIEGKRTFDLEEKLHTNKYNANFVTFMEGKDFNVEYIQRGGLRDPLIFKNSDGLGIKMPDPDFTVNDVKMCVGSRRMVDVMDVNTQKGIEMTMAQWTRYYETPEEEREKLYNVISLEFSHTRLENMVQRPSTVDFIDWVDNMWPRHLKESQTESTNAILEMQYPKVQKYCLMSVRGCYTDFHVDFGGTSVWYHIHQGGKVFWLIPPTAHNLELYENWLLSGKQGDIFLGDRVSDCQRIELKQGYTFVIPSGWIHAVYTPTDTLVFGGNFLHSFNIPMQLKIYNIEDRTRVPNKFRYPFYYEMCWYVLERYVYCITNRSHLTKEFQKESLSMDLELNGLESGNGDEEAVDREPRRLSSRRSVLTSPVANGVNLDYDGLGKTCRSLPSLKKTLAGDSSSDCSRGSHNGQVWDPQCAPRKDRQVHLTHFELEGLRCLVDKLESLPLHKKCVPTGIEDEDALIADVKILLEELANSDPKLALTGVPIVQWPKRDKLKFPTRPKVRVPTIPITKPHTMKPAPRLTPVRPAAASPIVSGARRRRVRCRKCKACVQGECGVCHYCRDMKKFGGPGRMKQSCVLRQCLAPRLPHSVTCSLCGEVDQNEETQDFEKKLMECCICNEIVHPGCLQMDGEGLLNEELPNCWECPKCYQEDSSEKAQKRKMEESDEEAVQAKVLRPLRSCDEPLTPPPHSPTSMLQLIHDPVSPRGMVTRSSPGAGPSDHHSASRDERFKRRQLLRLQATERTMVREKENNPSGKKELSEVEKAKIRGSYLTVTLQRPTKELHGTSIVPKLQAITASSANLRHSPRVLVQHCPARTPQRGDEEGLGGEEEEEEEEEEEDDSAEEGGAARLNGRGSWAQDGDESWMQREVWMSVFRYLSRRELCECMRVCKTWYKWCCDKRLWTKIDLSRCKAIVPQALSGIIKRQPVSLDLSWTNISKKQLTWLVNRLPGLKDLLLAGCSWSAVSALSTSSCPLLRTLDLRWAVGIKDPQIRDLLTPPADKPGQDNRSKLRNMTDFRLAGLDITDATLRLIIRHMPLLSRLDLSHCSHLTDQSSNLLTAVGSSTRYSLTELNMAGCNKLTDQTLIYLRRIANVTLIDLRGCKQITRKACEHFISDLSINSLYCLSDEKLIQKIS
Chain of FBXL10 (Q8NHM5 1-650): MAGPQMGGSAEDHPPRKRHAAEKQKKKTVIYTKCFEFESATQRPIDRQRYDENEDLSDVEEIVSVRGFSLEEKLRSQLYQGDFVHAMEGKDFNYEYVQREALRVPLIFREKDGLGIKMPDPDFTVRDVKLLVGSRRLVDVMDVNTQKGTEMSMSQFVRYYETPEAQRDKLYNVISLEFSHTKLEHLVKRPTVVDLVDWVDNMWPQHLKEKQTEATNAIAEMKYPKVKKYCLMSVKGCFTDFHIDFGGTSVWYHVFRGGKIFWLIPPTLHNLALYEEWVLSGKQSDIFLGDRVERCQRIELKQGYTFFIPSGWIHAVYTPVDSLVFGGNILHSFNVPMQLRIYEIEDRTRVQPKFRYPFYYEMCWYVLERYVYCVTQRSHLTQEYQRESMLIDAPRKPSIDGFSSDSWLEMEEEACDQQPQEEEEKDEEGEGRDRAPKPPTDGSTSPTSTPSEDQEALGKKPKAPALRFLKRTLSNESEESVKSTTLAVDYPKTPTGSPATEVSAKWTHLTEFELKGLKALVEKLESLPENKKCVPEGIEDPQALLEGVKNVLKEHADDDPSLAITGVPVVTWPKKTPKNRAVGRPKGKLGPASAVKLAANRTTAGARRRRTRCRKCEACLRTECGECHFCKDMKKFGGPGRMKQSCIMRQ

Structure (SMILES)	IC50 (FBXL10)	IC50 (FBXL11)	IC50 (PHF8)
CC(c1ccccc1)n1cnc(-c2cc(-c3c[nH]nn3)ccn2)c1 (stereo not shown) [Example 5, 2-[1-(1-phenylethyl)imidazol-4-yl]-4-(1H-triazol-4-yl)pyridine]	≤ 100 nM	≤ 100 nM	100 to 1000 nM
Cn1cnc(-c2cc(-c3c[nH]nn3)ccn2)c1-c1ccc(F)cc1OCC1CC1 [Example 4, 2-[5-[2-(cyclopropylmethoxy)-4-fluorophenyl]-1-methylimidazol-4-yl]-4-(1H-triazol-4-yl)pyridine]	≤ 100 nM	≤ 100 nM	1000 to 10000 nM
FC(F)(F)c1cccc(Cn2cnc(-c3cc(-c4c[nH]nn4)ccn3)c2)c1Cl [Example 22, 2-[1-[[2-chloro-3-(trifluoromethyl)phenyl]methyl]imidazol-4-yl]-4-(1H-triazol-4-yl)pyridine]	≤ 100 nM	≤ 100 nM	100 to 1000 nM
CCOc1cc(-c2c(-c3cc(-c4c[nH]nn4)ccn3)ncn2C)ccc1F [Example 25, 2-[5-(3-ethoxy-4-fluorophenyl)-1-methylimidazol-4-yl]-4-(1H-triazol-4-yl)pyridine]	≤ 100 nM	100 to 1000 nM	1000 to 10000 nM
N#Cc1[nH]nnc1-c1ccnc(-c2cn(Cc3ccccc3Cl)cn2)c1 [Example 13, 4-[2-[1-[(2-chlorophenyl)methyl]imidazol-4-yl]pyridin-4-yl]-1H-triazole-5-carbonitrile]	≤ 100 nM	–	1000 to 10000 nM
c1ccc2c(c1)CCCC2Cn1cnc(-c2cc(-c3c[nH]nn3)ccn2)c1 (stereo not shown) [Example 8, 2-[1-(1,2,3,4-tetrahydronaphthalen-1-ylmethyl)imidazol-4-yl]-4-(1H-triazol-4-yl)pyridine]	≤ 100 nM	≤ 100 nM	100 to 1000 nM

The next lines start with the values.

IC50 (FBXL10)	IC50 (FBXL11)	IC50 (PHF8)	Structure (SMILES)
≤ 100 nM	≤ 100 nM	100 to 1000 nM	CCOc1ccccc1CCn1cnc(-c2cc(-c3c[nH]nn3)ccn2)c1 [Example 9, 2-[1-[2-(2-ethoxyphenyl)ethyl]imidazol-4-yl]-4-(1H-triazol-4-yl)pyridine]
≤ 100 nM	≤ 100 nM	≤ 100 nM	Clc1ccccc1CCn1cnc(-c2cc(-c3c[nH]nn3)ccn2)c1 [Example 6, 2-[1-[2-(2-chlorophenyl)ethyl]imidazol-4-yl]-4-(1H-triazol-4-yl)pyridine]
≤ 100 nM	≤ 100 nM	100 to 1000 nM	COc1ccccc1CCn1cnc(-c2cc(-c3c[nH]nn3)ccn2)c1 [Example 7, 2-[1-[2-(2-methoxyphenyl)ethyl]imidazol-4-yl]-4-(1H-triazol-4-yl)pyridine]
≤ 100 nM	100 to 1000 nM	100 to 1000 nM	Clc1ccccc1Cn1cnc(-c2cc(-c3c[nH]nn3)ccn2)c1 [Example 2, 2-[1-[(2-chlorophenyl)methyl]imidazol-4-yl]-4-(1H-triazol-4-yl)pyridine]
≤ 100 nM	≤ 100 nM	100 to 1000 nM	Clc1cccc(Cn2cnc(-c3cc(-c4c[nH]nn4)ccn3)c2)c1Cl [Example 21, 2-[1-[(2,3-dichlorophenyl)methyl]imidazol-4-yl]-4-(1H-triazol-4-yl)pyridine]
≤ 100 nM	≤ 100 nM	100 to 1000 nM	c1ccc2c(CCn3cnc(-c4cc(-c5c[nH]nn5)ccn4)c3)cccc2c1 [Example 23, 2-[1-(2-naphthalen-1-ylethyl)imidazol-4-yl]-4-(1H-triazol-4-yl)pyridine]
≤ 100 nM	–	1000 to 10000 nM	Clc1[nH]nnc1-c1ccnc(-c2cn(CCc3cccc4ccccc34)cn2)c1 [Example 36, 4-(5-chloro-1H-triazol-4-yl)-2-[1-(2-naphthalen-1-ylethyl)imidazol-4-yl]pyridine]
